Test results taken from patent US10772900B2, “Drug target for treating veterinary infections and methods of using same” (THE TRUSTEES OF THE UNIVERSITY OF PENNSYLVANIA, priority 2016, dated 2020).

Columns and labels:
[1] = test system: S. schleiferi; test: MIC and MBC assays in Mueller-Hinton broth; assay type: cell-based, Staphylococcus schleiferi
Experimental: (§1) The minimal inhibitory concentration (MIC) of various antimicrobials (amoxicillin-clavulanic acid, ampicillin, cefazolin, chloramphenicol, ciprofloxacin, clindamycin, erythromycin, gentamicin, imipenem, oxacillin, penicillin, rifampin, tetracycline, trimethoprim-sulfamethoxazole, and vancomycin) was determined via broth microdilution on a MicroScan Walkaway 40 PC20 Gram-positive combo-panel (Dade Behring, Sacramento, Calif.). Enrofloxacin and marbofloxacin susceptibilities were determined via Kirby-Bauer disk diffusion as these drugs were not available on the pre-configured commercial test panel. Fosmidomycin MIC assays were performed following clinical laboratory standards. Fosmidomycin (Sigma, St. Louis, USA) was filter-sterilized with a […] filter (Pall Corporation, Ann Arbor, USA) and was serially 2-fold diluted in a concentration range of 40.96-0.25 mg/mL. Tubes containing 1 mL Mueller-Hinton broth (Sigma) were inoculated with 5×10^5 colony forming units/mL. 50 μL of the appropriate fosmidomycin concentration was added to each tube containing the starter culture, and was incubated at 37° C. overnight with shaking at 250 rpm for 18-20 hours. The MICS were determined by visual inspection. The minimum bactericidal concentration (MBC) was determined by plating 200 μL of the drug-treated cultures onto Mueller-Hinton agar plates (Remel, Lenexa, USA). The lowest concentration at which there was no growth after a 24-hour incubation at 37° C. was determined to be the MBC. For the plate-based fosmidomycin growth assay, overnight cultures of Staphylococcus species grown in Mueller-Hinton broth were sub-cultured to Mueller-Hinton agar plates containing 50 μg/mL fosmidomycin and were incubated for 24 hours at 37° C. All assays were performed and the results were interpreted using Clinical Laboratory Standards Institute guidelines (CLSI. (2013) Approved Standard-Fourth Edition. Clinical and Laboratory Standards Institute, Wayne, Pa., USA).

[2] = test system: S. schleiferi; test: plate-based fosmidomycin growth assay; assay type: cell-based, Staphylococcus schleiferi; conditions: 50 μg/mL fosmidomycin, Mueller-Hinton agar, 24 hours at 37° C.
Experimental: as §1, with “50 μL of the appropriate fosmidomycin concentration was added to each tube containing the starter culture, and was incubated at 37° C. overnight with shaking at 250 rpm for 18-20 hours.” left out, “For the plate-based fosmidomycin growth assay, overnight cultures of Staphylococcus species grown in Mueller-Hinton broth were sub-cultured to Mueller-Hinton agar plates containing 50 μg/mL fosmidomycin and were incubated for 24 hours at 37° C. All assays were performed and the results were interpreted using Clinical Laboratory Standards Institute guidelines (CLSI. (2013) Approved Standard-Fourth Edition. Clinical and Laboratory Standards Institute, Wayne, Pa., USA).” left out

[3] = test system: S. pseudintermedius; test: MIC and MBC assays in Mueller-Hinton broth; assay type: cell-based, Staphylococcus pseudintermedius
Experimental: as §1, with “50 μL of the appropriate fosmidomycin concentration was added to each tube containing the starter culture, and was incubated at 37° C. overnight with shaking at 250 rpm for 18-20 hours.” left out, “For the plate-based fosmidomycin growth assay, overnight cultures of Staphylococcus species grown in Mueller-Hinton broth were sub-cultured to Mueller-Hinton agar plates containing 50 μg/mL fosmidomycin and were incubated for 24 hours at 37° C. All assays were performed and the results were interpreted using Clinical Laboratory Standards Institute guidelines (CLSI. (2013) Approved Standard-Fourth Edition. Clinical and Laboratory Standards Institute, Wayne, Pa., USA).” left out

[4] = fosmidomycin safety trial for otic application in dogs; assay type: in vivo, dog; conditions: 100 micrograms in sterile water twice daily to both ears, 10 days
Experimental: FIGS. 7A-7C are a series of plots illustrating the outcome of a fosmidomycin safety trial for otic application in dogs. Five colony dogs were used in the safety study. Four of the five dogs were homozygous for ectodermal dysplasia, while the remaining dog was a carrier (heterozygote). Each dog was treated with 100 micrograms of fosmidomycin resuspended in water and applied twice daily to both ears. Pain and inflammation were assessed using the Short Form of the Glasgow Composite Pain Scale (FIG. 7A) and the Otitis Index Score (FIG. 7B and FIG. 7C), respectively. Clinical scoring was carried out prior to fosmidomycin treatment (“pre”), each day of drug application for 10 days, and one day after the cessation of treatment (“post”). Bars represent the mean and standard deviation of scores for the group of 5 dogs at each timepoint. Dotted lines represent field-standard thresholds for clinically significant pain or inflammation.
Five research dogs were used in a safety study testing otic application of fosmidomycin. Four of the five dogs were homozygous for ectodermal dysplasia, while the remaining dog was a carrier (heterozygote). […] Pain and inflammation were assessed using the Short Form of the Glasgow Composite Pain Scale (FIG. 7A) and the Otitis Index Score (FIG. 7B and FIG. 7C), respectively. […]

[5] = test system: S. pseudintermedius; test: plate-based fosmidomycin growth assay; assay type: cell-based, Staphylococcus pseudintermedius; conditions: 50 μg/mL fosmidomycin, Mueller-Hinton agar, 24 hours at 37° C.
Experimental: as §1, with “50 μL of the appropriate fosmidomycin concentration was added to each tube containing the starter culture, and was incubated at 37° C. overnight with shaking at 250 rpm for 18-20 hours.” left out, “For the plate-based fosmidomycin growth assay, overnight cultures of Staphylococcus species grown in Mueller-Hinton broth were sub-cultured to Mueller-Hinton agar plates containing 50 μg/mL fosmidomycin and were incubated for 24 hours at 37° C. All assays were performed and the results were interpreted using Clinical Laboratory Standards Institute guidelines (CLSI. (2013) Approved Standard-Fourth Edition. Clinical and Laboratory Standards Institute, Wayne, Pa., USA).” left out

[6] = test system: S. epidermidis; test: plate-based fosmidomycin growth assay; assay type: cell-based, Staphylococcus epidermidis; conditions: 50 μg/mL fosmidomycin, Mueller-Hinton agar, 24 hours at 37° C.
Experimental: as §1, with “50 μL of the appropriate fosmidomycin concentration was added to each tube containing the starter culture, and was incubated at 37° C. overnight with shaking at 250 rpm for 18-20 hours.” left out, “For the plate-based fosmidomycin growth assay, overnight cultures of Staphylococcus species grown in Mueller-Hinton broth were sub-cultured to Mueller-Hinton agar plates containing 50 μg/mL fosmidomycin and were incubated for 24 hours at 37° C. All assays were performed and the results were interpreted using Clinical Laboratory Standards Institute guidelines (CLSI. (2013) Approved Standard-Fourth Edition. Clinical and Laboratory Standards Institute, Wayne, Pa., USA).” left out

[7] = test system: Plasmodium falciparum; conditions: cited from earlier work
[8] = test system: S. aureus; test: plate-based fosmidomycin growth assay; assay type: cell-based, Staphylococcus aureus; conditions: 50 μg/mL fosmidomycin, Mueller-Hinton agar, 24 hours at 37° C.
Experimental: as §1, with “50 μL of the appropriate fosmidomycin concentration was added to each tube containing the starter culture, and was incubated at 37° C. overnight with shaking at 250 rpm for 18-20 hours.” left out, “For the plate-based fosmidomycin growth assay, overnight cultures of Staphylococcus species grown in Mueller-Hinton broth were sub-cultured to Mueller-Hinton agar plates containing 50 μg/mL fosmidomycin and were incubated for 24 hours at 37° C. All assays were performed and the results were interpreted using Clinical Laboratory Standards Institute guidelines (CLSI. (2013) Approved Standard-Fourth Edition. Clinical and Laboratory Standards Institute, Wayne, Pa., USA).” left out

[9] = test system: S. sciuri; test: MIC and MBC assays in Mueller-Hinton broth; assay type: cell-based, Staphylococcus sciuri
Experimental: as §1, with “50 μL of the appropriate fosmidomycin concentration was added to each tube containing the starter culture, and was incubated at 37° C. overnight with shaking at 250 rpm for 18-20 hours.” left out, “For the plate-based fosmidomycin growth assay, overnight cultures of Staphylococcus species grown in Mueller-Hinton broth were sub-cultured to Mueller-Hinton agar plates containing 50 μg/mL fosmidomycin and were incubated for 24 hours at 37° C. All assays were performed and the results were interpreted using Clinical Laboratory Standards Institute guidelines (CLSI. (2013) Approved Standard-Fourth Edition. Clinical and Laboratory Standards Institute, Wayne, Pa., USA).” left out

[10] = test system: Plasmodium falciparum; conditions: clinical trials, malaria, administered alone or in combination with clindamycin; cited from earlier work
[11] = test system: S. aureus; test: MIC and MBC assays in Mueller-Hinton broth; assay type: cell-based; conditions: Staphylococcus aureus, 37° C., 18-20 hours, read-out: MIC (concentration at which bacteria still grew normally)
Experimental: as §1

[12] = test system: S. epidermidis; test: MIC and MBC assays in Mueller-Hinton broth; assay type: cell-based; conditions: Staphylococcus epidermidis, 37° C., 18-20 hours, read-out: MIC (concentration at which bacteria still grew normally)
Experimental: as §1

[13] = test system: S. lugdunensis; test: MIC and MBC assays in Mueller-Hinton broth; assay type: cell-based; conditions: Staphylococcus lugdunensis, 37° C., 18-20 hours, read-out: MIC (concentration at which bacteria still grew normally)
Experimental: as §1

[14] = plated on Mueller-Hinton agar, 24-hour incubation at 37° C.

With O=CN(O)CCCP(=O)(O)O [fosmidomycin] the “inhibition of multi-drug resistant strain” value ([1]; S. schleiferi strain 1360-13, multi-drug resistant phenotype) was “inhibited”, the MIC ([1]; Staphylococcus schleiferi, Mueller-Hinton broth, 37° C., 18-20 hours, read-out: MIC (inhibited by concentrations as low as)) was ≥ 0.5 µg/mL and the “MBC (killed by concentrations of)” value [1, 14] was 4 to 16 µg/mL. For the same compound, the “growth on agar plates containing fosmidomycin” value (from here on “growth”) [2] was “completely restricted growth”, the MIC ([3]; Staphylococcus pseudintermedius, Mueller-Hinton broth, 37° C., 18-20 hours, read-out: MIC (inhibited by concentrations as low as)) was ≥ 0.5 µg/mL and the “MBC (killed by concentrations of)” value [3, 14] was 4 to 16 µg/mL. For the same compound, the “inflammation score (Otitis Index Score)” value [4] was “clinically insignificant”, the “pain score (Short Form of the Glasgow Composite Pain Scale)” value [4] was “clinically insignificant” and the “growth” value [5] was “completely restricted growth”. For the same compound, the “growth” value [6] was “grew”, the “killing the parasite in culture” value [7] was “effective” and the “growth” value [8] was “grew”. The MIC ([9]; Mammaliicoccus sciuri, Mueller-Hinton broth, 37° C., 18-20 hours, read-out: MIC (inhibited by concentrations as low as)) was ≥ 0.5 µg/mL, the “MBC (killed by concentrations of)” value [9, 14] was 4 to 16 µg/mL and the cure rates [10] was 85-100%. For the same compound, the MIC [11] was > 256 µg/mL, the MIC [12] was > 256 µg/mL and the MIC [13] was > 256 µg/mL.
